Results: patent publication US20190343858A1, “METHOD OF REGULATING THE CIRCADIAN RHYTHM OF AN INDIVIDUAL COMPRISING ADMINISTERING AN EFFECTIVE AMOUNT OF A CIRCADIAN RHYTHM REGULATOR CONTAINING 1,2-DI-O-GALLOYL-4,6-O-(S)-HEXAHYDROXYDIPHENOYL-B-D-GLUCOSE” (ORYZA OIL & FAT CHEMICAL CO., LTD,, priority 2017, published 2019)

Test system: BMAL1 gene
Experiment: Evaluation of the BMAL1 gene-expression-promotion activity (BMAL1 mRNA amount via reverse-transcribed cDNA)
Assay type: cell-based
Settings: rat-muscle myoblasts C2Cl2, differentiation-induction, cultivated one week; 3 μg/mL; Dunnett, ** p<0.01
Procedure: Differentiation-induction was done to the rat-muscle myoblasts C2Cl2. At the same time, the purple-tea extract of 0.1, 1.0, 3.0 and 10 μg/mL, and the GHG of 0.1, 1.0 and 3 μg/mL, was respectively added to such myoblasts and cultivated for one week. After that, an RNA extraction was done to determine, by using a reverse-transcribed cDNA, the amount of mRNA and of the BMAL1 gene.
A significance-test was done by the Dunnett Method, and the double asterisk ** means p<0.01. Also, no active components were added to the “control,” but the purple-tea extract (GHG-content extract) was added to the “PTE.”

Compound: O=C(OC1OC2COC(=O)c3cc(O)c(O)c(O)c3-c3c(cc(O)c(O)c3O)C(=O)OC2C(O)C1OC(=O)c1cc(O)c(O)c(O)c1)c1cc(O)c(O)c(O)c1 [GHG, 1,2-di-O-galloyl-4,6-O—(S)-hexahydroxydiphenoyl-ß-D-glucose]
- expression-level of the BMAL1 gene against the Control: significantly was seen to have increased
